# Results: patent US20030140370A1, “Fungal glyoxal oxidases” (priority 2001, published 2003)
# Molecular target: glyoxal oxidase (Glo1) (Ustilago maydis, UniProt Q7Z868)
# Experiment: Enzyme assay for identifying glyoxal oxidase inhibitors (Amplex Red/HRP coupled, cells of overproducer strain Bay-CA95)
# Format: biochemical
# Conditions: negative decimal logarithm of molar IC50; intact Bay-CA95 cells, 10 mM methylglyoxal, 9 hours at 30° C., fluorescence 550/595 nm; read-out: pI50 (converted)
# From the text: The activity of glyoxal oxidase in vitro and in vivo, for example in the U. maydis cells according to the invention produced as described in Example 3 (CA95) can be detected on the basis of the conversion of the substrate methylglyoxal, exploiting the following reaction:
# Methylglyoxal+O2→pyruvate+H2O2
# H2O2+10-acetyl-3,7-dihydroxyphenoxazine (Amplex Red®)→resorufin+H2O
# Amplex Red® reacts with H2O2 in a 1:1 stoichiometry, giving rise to resorufin (7-hydroxy-3H-phenoxazin-3-one sodium salt). The fluorescence is measured at an excitation wavelength of 550 nm and an emission of 595 nm. A substrate concentration of 10 mM methylglyoxal was employed in the assay. When using intact cells, it must be taken into consideration that the glyoxal oxidase concentration is low and that the reaction must therefore be allowed to proceed longer. Thus, for example, very good readings were obtained after incubation for 9 hours.
# The enzyme assay was carried out in a total volume of 50 μl. To this end, the substances to be assayed were introduced in 10 μl substrate solution (50 mM methylglyoxal, 2.5% (v/v) DMSO) into a 384 microtitre plate. The KM value of glyoxal oxidase for methylglyoxal had previously been determined (cf. FIG. 14). The concentration of the candidate compounds to be tested for an inhibitory effect was such that the final concentration of the substances in the assay carried out was 10 μM. In the next step, 20 μl of cell solultion (cells of the overproducer strain Bay-CA95 (OD600=5); 0.2 M 2,2-dimethyl succinate buffer, pH 5, cooled at 4° C.) were added. 20 μl of detection solution (125 μM Amplex Red™ reagent (20 mM stock solution in 100% DMSO), 2.5 U/ml horseradish peroxidase, 62.5 mM sodium phosphate buffer, pH 7.4) were added to the mixture. The mixture was incubated for 9 hours at 30° C. Then, the increase in fluorescence was measured at λ=550 nm (absorption) and λ=595 nm (emission), the results of a measurement in the presence of Bay-CA95 cells being compared with the results of a measurement in the presence of the wild-type U. maydis 518 cells (see also FIG. 15). The substances used in the assay were present in the following final concentrations: c(2,2-dimethyl succinate/NaOH)=40 mM, c(Amplex Red® (Molecular Probes))=50 μM, c(horseradish peroxidase)=0.001 U/μl, c(methylglyoxal)=10 mM, OD (Bay-CA95)=1, c(sodium phosphate buffer)=25 mM. The inhibitory effect of a candidate compound could be seen from the decrease in relative fluorescence, and inhibitors were identified. […] Table II also gives pI50 values which have been determined for the individual compounds. The pI50 value is the negative decimal logarithm of what is known as the IC50 value, which indicates the molar concentration of a substance which leads to 50% inhibition of the enzyme. For example, a pI50 value of 8 corresponds to half the maximum inhibition of the enzyme at a concentration of 10 nM.
# Chain of glyoxal oxidase (Glo1) (Q7Z868 entry or part of it): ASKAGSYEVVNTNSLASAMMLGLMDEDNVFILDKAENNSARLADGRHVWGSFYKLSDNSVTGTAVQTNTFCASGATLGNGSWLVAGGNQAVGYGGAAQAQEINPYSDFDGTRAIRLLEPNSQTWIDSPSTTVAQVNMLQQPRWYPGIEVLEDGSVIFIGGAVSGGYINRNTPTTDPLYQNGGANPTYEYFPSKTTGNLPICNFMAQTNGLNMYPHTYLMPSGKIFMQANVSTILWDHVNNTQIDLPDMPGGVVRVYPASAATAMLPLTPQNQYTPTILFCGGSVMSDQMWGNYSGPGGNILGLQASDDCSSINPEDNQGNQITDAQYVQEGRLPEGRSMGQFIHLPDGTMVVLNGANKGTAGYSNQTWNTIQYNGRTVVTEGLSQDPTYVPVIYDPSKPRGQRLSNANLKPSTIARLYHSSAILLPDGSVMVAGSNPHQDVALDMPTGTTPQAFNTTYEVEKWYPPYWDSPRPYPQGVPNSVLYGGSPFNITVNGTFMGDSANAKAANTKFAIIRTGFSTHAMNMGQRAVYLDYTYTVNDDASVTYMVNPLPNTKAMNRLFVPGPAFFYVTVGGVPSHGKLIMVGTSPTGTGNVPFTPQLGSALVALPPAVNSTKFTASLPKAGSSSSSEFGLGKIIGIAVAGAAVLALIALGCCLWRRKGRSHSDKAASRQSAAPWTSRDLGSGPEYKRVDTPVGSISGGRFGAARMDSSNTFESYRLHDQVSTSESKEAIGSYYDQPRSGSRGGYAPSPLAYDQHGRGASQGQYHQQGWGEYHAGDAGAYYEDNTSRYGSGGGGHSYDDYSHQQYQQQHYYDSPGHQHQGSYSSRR
row,SMILES,IC50 [µM]
1,COc1ccc(NCc2ccccc2O)cc1 [Example 5],3.98
2,CCOc1ccc(NCc2ccccc2O)cc1 [Example 2],4.07
3,Nc1ccc(Oc2ccc(N)cc2)cc1 [Example 3],5.62
4,C[Si](C)(C)O[Si](C)(CCCNC(=O)/C=C\c1cc(OC(O)C(O)C(O)C(O)CO)c(O)cc1O)O[Si](C)(C)C (stereo not drawn) [Example 4],3.8
5,COc1ccc(C(=O)Nc2ccccc2)cc1N [Example 1],11

# Test system: Venturia inaequalis
# Experiment: Venturia inaequalis (apple scab) protective test on young plants
# Format: in vivo
# Conditions: protective action, concentration of 250 ppm; 0% = control, 100% = no disease observed
# Procedure: The antifungal action of the compounds (protective action) was tested, inter alia, on Venturia inaequalis as an example. This fungus causes what is known as apple scab, which leads to black and green mottled leaves in pomaceous fruit trees. The lesions enlarge and coalesce. Leaves which are severely infested die, which may lead to the trees losing all their leaves in summer. The infection also has an adverse effect on fruit set. Scab on fruits manifests itself in grey lesions on the skin, with suberification and deformed fruits.
# To prepare a suitable preparation of active compound, 1 part by weight of active compound is mixed with, for example, 24.5 parts by weight of acetone and 24.5 parts by weight of dimethylformamide and 1.0 part by weight of alkylaryl polyglycol ether as emulsifier, and the concentrate is diluted with water to the desired concentration.
# To test for protective activity, young plants are sprayed with the preparation of the active compound at the application rate stated. After the spray coating has dried on, the plants are inoculated with an aqueous conidial suspension of the apple scab pathogen Venturia inaequalis and then remain in an incubation cabinet for 1 day at approximately 20° C. and 100% relative atmospheric humidity. […]
# 1 to 12 days post-inoculation, the test is evaluated. […]
row,SMILES,efficacy [%]
1,C[Si](C)(C)O[Si](C)(CCCNC(=O)/C=C\c1cc(OC(O)C(O)C(O)C(O)CO)c(O)cc1O)O[Si](C)(C)C (stereo not drawn) [Example 4],45
